One experiment concerns NCI-H23. The experiment can be described thus: Antiproliferative activity against human NCI-H23 cells harboring KRAS G12C mutant assessed as inhibition of cell growth. Type of experiment: functional, cell-based.
Experiment [1] concerns NCI-H358. As to the kind of experiment: Antiproliferative activity against human NCI-H358 cells harboring KRAS G12C mutant assessed as inhibition of cell growth. Type of experiment: functional, cell-based.
The subject of experiment [2] is BaF3. As to the kind of experiment: Antiproliferative activity against mouse BaF3 cells harboring KRAS G12S mutant assessed as inhibition of cell growth incubated for 72 hrs by CellTiter-Glo luminescent assay. As to conditions: BaF3, 72 h. Type of experiment: functional, cell-based.
A short description of experiment [3]: Antiproliferative activity against human KMS-20 cells harboring KRAS G12S mutant assessed as inhibition of cell growth incubated for 72 hrs by CellTiter-Glo luminescent assay. Type of experiment: functional, cell-based. To be noted: KMS-20, 72 h. (In general: Cellular ATP, detected with luciferase, serves as a proxy for viable cell number.)
For experiment [4], the system named is GTPase KRas (Homo sapiens), P01116 [G12S]. The experiment can be described thus: Covalent modification of GDP-bound recombinant human KRAS G12S mutant at 10 uM incubated for 10 mins by mass spectrometry analysis relative to control.
Chain of GTPase KRas (Homo sapiens), P01116 [G12S] (P01116 whole entry G12S): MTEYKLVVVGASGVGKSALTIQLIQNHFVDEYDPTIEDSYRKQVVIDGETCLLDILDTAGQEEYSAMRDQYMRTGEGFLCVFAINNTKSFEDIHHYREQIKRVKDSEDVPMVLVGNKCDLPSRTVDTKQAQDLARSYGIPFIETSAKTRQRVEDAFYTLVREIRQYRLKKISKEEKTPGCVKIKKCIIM
Experiment [5] concerns BaF3. As to the kind of experiment: Antiproliferative activity against mouse BaF3 cells harboring wild type KRAS assessed as inhibition of cell growth incubated for 72 hrs by CellTiter-Glo luminescent assay. Type of experiment: functional, cell-based. To be noted: BaF3, 72 h.
A further experiment has as its target GTPase KRas (Homo sapiens, UniProt P01116, G12S). The experiment can be described thus: Inhibition of GTP-bound KRAS G12S mutant in human A549 cells incubated for 2 hrs by immunoblot analysis. The experiment is classed as cell-based. (In western blotting, separated proteins are transferred to a membrane and probed.)
Experiment [6] concerns the target Protein cereblon/GTPase KRas (Homo sapiens, UniProt P01116+Q96SW2, G12C). The experiment can be described thus: PROTAC activity at CRBN/KRAS G12C mutant in human NCI-H358 cells assessed as induction of KRAS G12C degradation. Type of experiment: cell-based.
Experiment [7] has as its system GTPase KRas (Homo sapiens), P01116 [G12S]. The experiment can be described thus: Covalent modification of GDP-bound recombinant human KRAS G12S mutant at 10 uM incubated for 1 hr by mass spectrometry analysis relative to control.
For experiment [8] the test system is unchanged. As to the kind of experiment: Covalent modification of GDP-bound recombinant human KRAS G12S mutant at 10 uM incubated for 12 hrs by mass spectrometry analysis relative to control.
A short description of experiment [9]: Inhibition of ERK phosphorylation in human NCI-H358 cells harboring KRAS G12C mutant by Western blot analysis. Type of experiment: cell-based.
The test system of experiment [10] is NCI-H358. As to the kind of experiment: Antiproliferative activity against human NCI-H358 cells harboring KRAS G12C mutant assessed as inhibition of cell growth by resazurin dye based assay. Type of experiment: functional. In general terms: Alamar Blue is a resazurin reagent that responds to reducing activity.

Molecules are shown by their SMILES.

Chain of Protein cereblon/GTPase KRas (P01116 whole entry G12C, stated change not applied): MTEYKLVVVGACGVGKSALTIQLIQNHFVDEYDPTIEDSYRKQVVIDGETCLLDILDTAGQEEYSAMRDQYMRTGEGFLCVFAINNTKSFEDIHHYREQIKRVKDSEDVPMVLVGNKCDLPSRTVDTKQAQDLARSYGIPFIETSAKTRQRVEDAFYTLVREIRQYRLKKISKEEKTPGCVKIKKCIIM
Chain of Protein cereblon/GTPase KRas (Q96SW2 whole entry, stated change not applied): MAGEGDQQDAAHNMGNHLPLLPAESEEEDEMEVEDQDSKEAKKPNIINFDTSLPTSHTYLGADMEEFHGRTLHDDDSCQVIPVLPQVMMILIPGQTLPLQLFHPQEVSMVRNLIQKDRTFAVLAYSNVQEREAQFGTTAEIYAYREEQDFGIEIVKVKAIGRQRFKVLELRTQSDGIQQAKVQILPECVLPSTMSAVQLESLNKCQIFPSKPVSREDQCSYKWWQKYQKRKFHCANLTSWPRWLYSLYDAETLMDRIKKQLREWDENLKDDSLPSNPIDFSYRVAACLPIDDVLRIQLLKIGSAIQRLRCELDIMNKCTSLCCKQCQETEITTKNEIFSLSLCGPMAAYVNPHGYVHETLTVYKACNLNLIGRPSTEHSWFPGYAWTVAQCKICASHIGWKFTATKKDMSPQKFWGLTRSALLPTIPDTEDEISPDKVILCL
Chain of GTPase KRas (P01116 whole entry G12S): as the sequence (P01116 whole entry G12S) above

`C=C(C(=O)N1CCN(c2ncnc3c(F)c(-c4cc(Cl)ccc4OC)c(Cl)cc23)[C@H](C)C1)C(F)(F)F`: the IC50 – broadly, the midpoint of a concentration-inhibition curve – in the experiment with NCI-H23 came to 1.55 µM; in the experiment with NCI-H358 [1], 0.78 µM.
As to `O=C1O[C@H]2CN(c3nc(OCC45CCCN4CCC5)nc4c(F)c(-c5cccc6cccc(Cl)c56)ncc34)CC[C@@H]12`, the IC50 with BaF3 [2] came out at 2.4 µM; in experiment [3], 7.5 µM; with BaF3 [5], 12.5 µM; at GTPase KRas, 3 µM. In addition, in experiment [4], the Activity worked out at 100%.
Consider `COc1cc(Cl)c(-c2cc(Cl)ccc2Cl)cc1C(=O)N1CCN(C(=O)/C=C\C(=O)NCCCCCCNc2cccc3c2C(=O)N(C2CCC(=O)NC2=O)C3=O)CC1` (stereo not drawn), for which the IC50 in the experiment on NCI-H358 [1] was 17.4 µM. In addition, the DC50 (in general, the midpoint of the concentration-degradation curve) in [6] worked out at 1.25 µM.
Turning to `CN1CCC[C@H]1COc1nc2c(c(N3CCC4C(=O)OC4C3)n1)CCN(c1cccc3cccc(Cl)c13)C2` (stereo partly drawn), the Activity in [7] was found to be 64%; in experiment [8] it was 100%.
As for `C=CC(=O)N1CC2(CC(n3nc(-c4ccc5c(cnn5C)c4)c(-c4c(Cl)c(C)cc5[nH]ncc45)c3C)C2)C1` [OPNURASIB], the IC50 in experiment [9] was found to be 0.018 µM; in the experiment with NCI-H358 [10], 0.019 µM.

These data come from ChEMBL document CHEMBL5346875, “Annual review of KRAS inhibitors in 2022” (Eur J Med Chem, 2023).
